In article PMC12002301, “Discovery and functional characterization of a bombesin-type neuropeptide signaling system in an invertebrate” (Proceedings of the National Academy of Sciences of the …, 2025):
Entries after “also recorded” stand apart in the source; their conditions may differ.

Tested on: ArBNR1
Assay: Luminescence (GFP-aequorin Ca2+) assay, CHO-K1 cells coexpressing ArBNR1 and Gqs5
Format: cell-based, Asterias rubens
Settings: ArBNR1, words
Procedure: Having investigated relationships of eleven A. rubens BN-type receptor candidates (ArBNR1-11) with BN-type, ET-type, and CCHa/EP-type receptors in other taxa, ArBNR1 was identified as the best candidate and therefore this was selected for experimental testing. However, two other receptors (ArBNR2 and ArBNR3) were also tested. The methods employed for functional characterization of A. rubens neuropeptide receptors have been described previously ([57]) and a description of the methods employed in this study is included in SI Appendix, SI Methods. […]
As a complement to use of CLANS, phylogenetic trees were generated with the maximum-likelihood method (1000 bootstrap replicates) using One Step Build a ML Tree plugin in TBtools (12), specifying orexin-type receptors as an outgroup. […] Tree_B analysed the branch of tree_A containing ArBNR1; tree_C analysed the branch of tree_A containing ArBNR2; tree_D analysed the branch of tree_A containing ArBNR3; tree_E analysed the branch of tree_A containing ArBNR4, ArBNR5 and ArBNR6; tree_F analysed the branch of tree_A containing ArBNR7; tree_G analysed the branch of tree_A containing ArBNR8; tree_H analysed the branch of tree_A containing ArBNR9 and tree_I analysed the branch of tree_A containing ArBNR10 and ArBNR11. […]
identical to residues 18 - 270 of the protein XP_033631283.1, which was determined from genome […]

## EPMPSSLALYIANLSP-NH2 [ArBNP65-81, C-terminally amidated 16-residue peptide predicted to be derived from residues 65 to 81 of ArBNP]
  peptide-induced luminescence: did not trigger luminescence; also recorded: peptide-induced luminescence was only observed with ArBN5-14
